Assay results as given in patent US8415372B2, “Sulfonamide compound” (Asahi Kasei Pharma Corporation, priority 2007, dated 2013).

Columns and labels:
[1] = system: rabbit normal intraocular pressure; experiment: Intraocular pressure reducing action (Test Example 3); format: in vivo, Japanese white rabbit; details: Oryctolagus cuniculus, topical; 3 mM aqueous solution, 50 μl to the left eye; max difference of left and right eyes at 2, 4 and 6 hours relative to value before administration; read-out: Intraocular pressure reducing degree
Method: A Japanese white rabbit having a body weight of about 2 kg was placed in a positioner and naturalized for one week before the experiment. An ophthalmologic local anesthesant (Benoxil) was administered to both eyes, and then intraocular pressure was measured by using a tonometer (Classic 30, Solan). A 3 mM aqueous solution of a test compound was administered in a volume of 50 μl to the left eye, and the right eye was not treated (control eye). The intraocular pressure values were measured for the left and right eyes immediately before, and 2, 4 and 6 hours after the administration of the aqueous solution of the test compound, and the difference of the measured values for the left and right eyes was considered an intraocular pressure reduction value of the test medicament at each measurement time. The largest difference of the values for the left and right eyes among the measured values at the measurement times (after 2, 4 and 6 hours) was considered the maximum intraocular pressure reduction value (max ? IOP) of each test medicament. The intraocular pressure reducing degree representing the intraocular pressure reducing action of each test medicament was calculated according to the following formula. Since rabbits show significant daily variation of intraocular pressure, daily variation is added when change of intraocular pressure is measured over time, and the intraocular pressure reducing action may be overestimated. Therefore, we used this calculation method of intraocular pressure reduction value in order to minimize the influence of the variation. Intraocular pressure reducing degree(%)=(max ? IOP/Intraocular pressure value immediately before administration)×100

[2] = system: monkey intraocular pressure; experiment: Intraocular pressure reduction enhancing action in monkey (Test Example 8); format: in vivo; details: cynomolgus monkey
Method: As for the test compound used for combination use, similar effect can be obtained also with the compounds of the present invention represented with the example numbers mentioned in Test Example 3. The test is performed by using cynomolgus monkeys sufficiently naturalized for the operation of fixation on a monkey chair and intraocular pressure measurement.
As the test compound, the 19-1 compound was dissolved in physiological saline, and the solution is neutralized by addition of sodium hydroxide (pH 7.0 to 8.0) to prepare a 0.01 weight % aqueous solution (19-1 compound aqueous solution). As a drug for combination use, latanoprost (trade name: Xalatan, Pfizer) is used as the marketed formulation per se. The test aqueous solution or the drug for combination use is instilled to the left eye, and the right eye is not treated (control eye). […] After initial intraocular pressure values of the monkeys are measured for each group, 30 μL of physiological saline is instilled to the control group, single drug group 1, and single drug group 2, and latanoprost is instilled in the same volume to the combination use group. […] Then, the intraocular pressure is measured over time for each group.

CN[C@H]1CCN(S(=O)(=O)c2cccc3cncc(Br)c23)C1 [Example 1-3, (S)-1-(4-Bromo-5-isoquinolinesulfonyl)-3-(methylamino)pyrrolidine]
inhibition in vivo at 3000 µM [1]: ≥ 20%

COc1ccc(CN[C@H]2CCN(S(=O)(=O)c3cccc4cncc(Br)c34)C2)cc1 [Example 1-7]
inhibition in vivo at 3000 µM [1]: 5 to 10%

Cc1nc(CNC2CCN(S(=O)(=O)c3cccc4cncc(Br)c34)C2)c[nH]1 (stereo not drawn) [Example 1-19]
inhibition in vivo at 3000 µM [1]: 5 to 10%

Cn1cccc1CNC1CCN(S(=O)(=O)c2cccc3cncc(Br)c23)C1 (stereo not drawn) [Example 1-20]
inhibition in vivo at 3000 µM [1]: 10 to 20%

NCCNC1CCN(S(=O)(=O)c2cccc3cncc(Br)c23)C1 (stereo not drawn) [Example 1-31]
inhibition in vivo at 3000 µM [1]: 10 to 20%

CN[C@H]1CCN(S(=O)(=O)c2cccc3cncc(C)c23)C1 [Example 8-3]
inhibition in vivo at 3000 µM [1]: ≥ 20%

Cc1cncc2cccc(S(=O)(=O)N3CCC(NC(C)C)C3)c12 (stereo not drawn) [Example 8-27]
inhibition in vivo at 3000 µM [1]: 10 to 20%

Cc1cncc2cccc(S(=O)(=O)N3CCC(NC4CCC4)C3)c12 (stereo not drawn) [Example 8-28]
inhibition in vivo at 3000 µM [1]: 5 to 10%

Cc1cncc2cccc(S(=O)(=O)N3CCC(NC4CCCC4)C3)c12 (stereo not drawn) [Example 8-29]
inhibition in vivo at 3000 µM [1]: 5 to 10%

Cc1cncc2cccc(S(=O)(=O)N3CCC(NC4CCCCC4)C3)c12 (stereo not drawn) [Example 8-30]
inhibition in vivo at 3000 µM [1]: 5 to 10%

Cc1cncc2cccc(S(=O)(=O)N3CCC(NC4CCOCC4)C3)c12 (stereo not drawn) [Example 8-31]
inhibition in vivo at 3000 µM [1]: 10 to 20%

Cc1cncc2cccc(S(=O)(=O)N3CCC(NCCN)C3)c12 (stereo not drawn) [Example 8-32]
inhibition in vivo at 3000 µM [1]: 5 to 10%

C=CCNC1CCN(S(=O)(=O)c2cccc3cncc(C)c23)C1 (stereo not drawn) [Example 8-34]
inhibition in vivo at 3000 µM [1]: 5 to 10%

Cc1cncc2cccc(S(=O)(=O)N3CCC(NCCc4ccccc4)C3)c12 (stereo not drawn) [Example 8-37]
inhibition in vivo at 3000 µM [1]: 5 to 10%

C#Cc1cncc2cccc(S(=O)(=O)N3CC[C@H](NCc4ccco4)C3)c12 [Example 10-14]
inhibition in vivo at 3000 µM [1]: 5 to 10%

C#Cc1cncc2cccc(S(=O)(=O)N3CC[C@H](NC4CCOCC4)C3)c12 [Example 10-31]
inhibition in vivo at 3000 µM [1]: ≥ 20%

N[C@H]1CCN(S(=O)(=O)c2cccc3cncc(Cl)c23)C1 [Example 19-1, (S)-3-Amino-1-(4-chloro-5-isoquinolinesulfonyl)pyrrolidine]
Intraocular pressure reducing action, combination use group ([2]; 30 μL latanoprost (Xalatan) then 30 μL 19-1 compound aqueous solution, compared with single drug groups): exceeding those of both the single drug group 1 and single drug group 2
Intraocular pressure reducing action, single drug group 1 ([2]; 30 μL of 0.01 weight % aqueous solution, compared with control group): exceeding that of the control group

CN[C@H]1CCN(S(=O)(=O)c2cccc3cncc(Cl)c23)C1 [Example 19-3, (S)-1-(4-Chloro-5-isoquinolinesulfonyl)-3-(methylamino)pyrrolidine]
inhibition in vivo at 3000 µM [1]: ≥ 20%

CCN[C@H]1CCN(S(=O)(=O)c2cccc3cncc(Cl)c23)C1 [Example 19-4]
inhibition in vivo at 3000 µM [1]: ≥ 20%

O=S(=O)(c1cccc2cncc(Cl)c12)N1CC[C@H](NCc2ccco2)C1 [Example 19-14]
inhibition in vivo at 3000 µM [1]: 5 to 10%

O=S(=O)(c1cccc2cncc(Cl)c12)N1CC[C@H](NCc2cccs2)C1 [Example 19-17]
inhibition in vivo at 3000 µM [1]: 5 to 10%

Cn1cccc1CN[C@H]1CCN(S(=O)(=O)c2cccc3cncc(Cl)c23)C1 [Example 19-21]
inhibition in vivo at 3000 µM [1]: ≥ 20%

O=S(=O)(c1cccc2cncc(Cl)c12)N1CC[C@H](NC2CCOCC2)C1 [Example 19-31]
inhibition in vivo at 3000 µM [1]: ≥ 20%
